# According to paper PMC11672551, “Cyclic Ruthenium-Peptide Prodrugs Penetrate the Blood–Brain Barrier and Attack Glioblastoma upon Light Activation in Orthotopic Zebrafish Tumor Models” (ACS Central Science, 2024):
# Like-named read-outs stand apart in the source and are kept apart here.
# How the values were obtained:
# U87MG cells = test: 2D cytotoxicity assay, SRB end point, dark vs green light; assay type: cell-based, human; details: normoxia (21% O2); for EC50: SRB at 96 h
# Experimental: To test the in vitro phototoxicity of the three complexes toward 2D monolayer U87MG cells, a cell viability assay was undertaken as follows: the cells were seeded at t = 0, treated at t = 24 h, irradiated with green light (520 nm, 13.1 J cm^–2) at t = 48 h without refreshing the medium (drug-to-light interval = 24 h), further incubated in the dark for 48 h, and counted at t = 96 h with a sulforhodamine B (SRB) cell quantification end point assay.[45] Half-maximal effective concentrations (EC50 in μM), compared to untreated control, and photoindex (PI) values, defined as EC50,dark/ EC50,light, were calculated to characterize the toxicity and light activation of each Ru-peptide conjugate. […] However, a much stronger discrepancy appeared in the 2D toxicity data in hypoxic conditions (Table 2, Figure S22b). The phototherapeutic properties of Ru-p(HH) in the green light group were the poorest, leading to a PI of only 1.3. […] Ru-p(MH) stood somewhere between these values with a PI of 1.9 under hypoxia. […] The loss of activity of Ru-p(HH) under hypoxia is consistent with the hypothesis of a PDT pathway, while Ru-p(MM) keeping appreciable phototoxicity under hypoxia better fits the hypothesis of a PACT cell-killing mechanism.
# U87MG cells (6000) were seeded in 96-well plates (Sarstedt, 83.3924), and each well contained 100 μL of Opti-MEM (Gibco complete medium 11058-021, supplemented with 2.5% v/v fetal calf serum (FCS), 0.2% v/v penicillin/streptomycin (P/S), and 1% v/v glutamine). They were then placed either in a normoxic (21% O2) or hypoxic (1.0% O2) incubator; 24 h later, different concentrations of Ru-p(HH), Ru-p(MH), or Ru-p(MM) dissolved in Opti-MEM (100 μL) were added to the wells in triplicate. For each complex, one dark and one light plate were involved. Each plate was further incubated in the dark for 24 h (DLI). After that, one plate was irradiated with green light (520 nm) for 20 min at 37 °C for normoxia (dose = 13.1 J cm^–2) or 30 min for hypoxia (dose = 13.0 J cm^–2), while the other plate was kept in the dark. The cells were further incubated for another 2 days in normoxic or hypoxic conditions, respectively. Finally, 100 μL of cold trichloroacetic acid (10% w/v) was added to each well to fix the cells, and all plates were then transferred to a 4 °C refrigerator for 48 h before an SRB cell quantification end point assay was performed.[45] All experiments were conducted in biologically independent triplicate.
# Hypoxic cell models in vitro: all cells were incubated and passaged in a dark hypoxic incubator (1% O2) for at least 2 weeks before all hypoxia studies. Adding chemicals to the cells had to be performed in air; however, the cell-growing medium was kept in the hypoxia incubator for at least 2 days before the addition to hypoxic cells, and all hypoxic light irradiations were performed inside the hypoxic incubator set at 1.0% O2.
# [1] = system: U87MG-wt and U87MG-kd (ITGAV, integrin αV knockdown) cells; test: Cellular ruthenium uptake by ICP-MS in wild type vs ITGAV knockdown cells; assay type: cell-based, human; details: normoxia, 10 μM, 3 h, 2D monolayers, n = 3
# Experimental: Figure 2 Integrin targeting by Ru-p(HH), Ru-p(MH), and Ru-p(MM)in vitro. (a, b) Expression of integrin (a) αVβ3 and (b) αVβ5 in MCF7, PC-3, A549, MDA-MB-231, U87MG, and U87MG-kd cell lines under normoxic (21% O2) or hypoxic (1% O2) conditions. Note a: ITGAV was knockdown; see Methods. Bars represent the fluorescence intensity of the cells incubated with either anti-integrin αVβ3 or αVβ5 monoclonal antibodies followed by a secondary antibody conjugated to Alexa-Fluor 488. Error: standard deviation (SD), n = 2. (c) Ruthenium accumulation (μg Ru/million cells) of wild type U87MG (U87MG-wt) and ITGAV knockdown U87MG (U87MG-kd) cell lines after treatment with medium (control), Ru-p(HH), Ru-p(MH), Ru-p(MM), or [Ru(Ph2phen)2(bpy)]Cl2 (normoxia, 10 μM, 3 h). Error: standard deviation (SD), n = 3. Two-way ANOVA was used to determine the significance of the comparisons of data (*P < 0.05, **P < 0.01, ***P < 0.001, ****P < 0.0001).
# In order to check whether the integrins […] were responsible for the cellular uptake of these conjugates, an ITGAV (integrin αV) knockdown U87MG cell line (U87MG-kd, Figure 2a,b) was prepared, and the cellular ruthenium uptake was measured using ICP-MS in wild type and knockdown U87MG 2D cell monolayers (Figure 2c). […]
substance,measurement,setting,value
[Ru(Ph2phen)2(bpy)]Cl2,"PI, photoindex EC50,dark/EC50,light",U87MG cells,74.4
same,EC50,"U87MG cells; 520 nm, 10.9 mW cm–2, 13.1 J cm–2, 20 min, DLI 24 h, n = 3, read-out: EC50, green light",0.18 µM
same,EC50,"U87MG cells; light dose 0, 24 h treatment, no wash, n = 3, read-out: EC50, dark",13.4 µM
same,cellular ruthenium uptake in U87MG-kd compared to wild type U87MG,[1],not lowered
